Data as given in US20090253709A1 (NATIONAL DEFENSE MEDICAL CENTER, priority 2008, published 2009).

Key:
[1] = tested on: hTERT expression; test: SEAP assay, H1299/PhTERT-driven SEAP system; assay type: cell-based, human; details: Homo sapiens
From the text: The condition of the cells for selecting the telomerase inhibitor must be the cancer cells with telomerase activity. H1299 is a non-small cell lung cancer cell line with telomerase activity. The hTERT communication gene linked behind PhTERT which is located at the fifth chromosome of H1299 cell can be expressed; however, this expression is hard to detect. Therefore, the plasmid having the SEAP communication gene linked behind PhTERT was transfected into H1299 cells. Under the identical condition, after PhTERT was activated, the SEAP communication gene linked behind the plasmid was also activated. This gene could be detected by this analytic method while expressing.
If additionally added reagent can inhibit PhTERT, the linked SEAP communication gene will not be expressed, and the hTERT communication gene linked behind PhTERT at the fifth chromosome will not be expressed. […]
(§1) The cellular medium after the cellular incubation was transferred into the eppondorf tube, and the activity of endogeneous alkaline phosphatase was inactivated at 65° C. for 10 minutes. After centrification, the mixture was obtained by mixing 50 μl of the supernatant with the equal volume of the SEAP buffer. The mixture and the substrate (120 mM of p-nitrophenylphosphate) were preheated at 37° C. for 10 minutes respectively, and the mixture and the substrate were mixed at a ratio of 1:10 and reacted at 37° C. The absorbance of visible light at 405 nm was determined at the appropriate time intervals, and the enzymatic activity of SEAP was represented by the speed of the increasing absorbance at 405 nm.
The selection of telomerase inhibitors of the anthraquinone compounds provided in the present invention was performed by the H1299/PhTERT-driven SEAP system. SEAP is the communication gene in this drug selection model. The SEAP inhibition was shown as follows. The quantitative cellular medium obtained after the 24-hour drug-treatment and the identical inactivation was reacted with the quantitative SEAP substrate, and the absorbance at 405 nm was detected for 5 time intervals. Subsequently, the linear slope of absorbance to the measuring time was calculated, and the variance of absorbance at 405 nm per minute was represented and compared with the SEAP-producing result of drug-untreated H1299 cells. In addition, the influence of the cell-treated drug solution to the cellular proliferation and the drug toxicity to the cells were considered, and the cellular growth was evaluated by the MTT assay. The drug-treated cells were analyzed by the SEAP assay and the data analysis of MTT assay at the same time. Both results were compared so as to delete the influence of cell number or the activity to SEAP, and the dose-dependent phenomenon could be anticipated in the range of drug concentration designed by the laboratory.
In the preliminary selection, the highest concentration was 1000 μM, and 10-fold serial dilutions were done. Therefore, the final concentrations for treating cells were 1 μM, 10 μM and 100 μM, and the drug concentrations were repeated for 5 times. Since the chemically-synthetic drugs have colors thereon, the SEAP value of drug-treatment without cells was also determined to be the background value which was deducted while treating with the drugs. The candidate drug for inhibiting telomerase on the hTERT gene expression level was evaluated and anticipated.

[2] = tested on: hTERT expression; test: SEAP assay in hTERT-BJ1-PTERT(3.4)-SEAP cells; assay type: cell-based; details: Homo sapiens, read-out: SEAP (Inhibition μM ± SD)
Method: A total of 2×10^3 hTERT-BJ1-PTERT(3.4)-SEAP cells were seeded in the 96-well cell culture plate, and incubated with DMEM (GIBCO®)/glucose mixture and Medium 199 (GIBCO®)/10% FBS/1 mM sodium pyruvate (GIBCO®)/4 mM L-glutamine (GIBCO®) mixture at a ratio of 4:1 at 37° C. for 24 hours. When the cells were attached in the bottom of the well, the seriously-diluted compounds with different concentrations ([…]) were treated with the cells for 48 hours, and the PTERT(3.4)-SEAP cells without drug treatment were being the control. After 48 hours of drug treatment, the cultured medium were collected for performing the analysis of SEAP activity. The cells were washed with 1×PBS once immediately, and the MTT assay was performed to compare the compounds with the relative toxicity or the influence to the proliferation and activity.
as §1

[3] = NCI-H1299, H1299, compound concentration 1 μM, read-out: SEAP (Inhibition μM ± SD)
[4] = NCI-H1299, H1299, compound concentration 10 μM, read-out: SEAP (Inhibition μM ± SD)
[5] = NCI-H1299, H1299, compound concentration 100 μM, read-out: SEAP (Inhibition μM ± SD)
[6] = BJ1, compound concentration 1 μM
[7] = BJ1, compound concentration 10 μM
[8] = BJ1, compound concentration 100 μM
[9] = NCI-H1299, read-out: SEAP (Inhibition μM ± SD)

Row | SMILES | melting point | activity at 1 µM [1, 3] | activity at 10 µM [1, 4] | activity at 100 µM [1, 5] | activity at 1 µM [2, 6] | activity at 10 µM [2, 7] | activity at 100 µM [2, 8] | activity at 1 µM [1, 9] | activity at 10 µM [1, 9] | activity at 100 µM [1, 9] | activity at 1 µM [2] | activity at 10 µM [2] | activity at 100 µM [2]
1 | CCCCNCC(=O)Nc1ccc2c(c1)C(=O)c1cc(NC(=O)CNCCCC)ccc1C2=O [Compound 5, 2,7-Bis[2-(butylamino)acetamido]anthraquinone] | 125 °C | 77 ± 18% | 26 ± 17% | 20 ± 13% | 27 ± 18% | 24 ± 24% | 80 ± 14% | – | – | – | – | – | –
2 | Nc1ccc2c(c1)C(=O)c1cc(N)ccc1C2=O [Compound 2, 2,7-Diaminoanthraquinone] | 342 °C | 87 ± 10% | 75 ± 8% | 63 ± 12% | – | – | – | – | – | – | – | – | –
3 | CCC(=O)Nc1ccc2c(c1)C(=O)c1cc(NC(=O)CC)ccc1C2=O [Compound 27, 2,7-Bis(propionamido)anthraquinone] | 291 °C | 90 ± 23% | 95 ± 14% | 85 ± 16% | 78 ± 10% | 64 ± 8% | 51 ± 8% | – | – | – | – | – | –
4 | O=C(CCCl)Nc1ccc2c(c1)C(=O)c1cc(NC(=O)CCCl)ccc1C2=O [Compound 15, 2,7-Bis(3-chloropropionamido)anthraquinone] | 281 °C | 94 ± 11% | 94 ± 7% | 87 ± 9% | – | – | – | – | – | – | – | – | –
5 | CCNCCC(=O)Nc1ccc2c(c1)C(=O)c1cc(NC(=O)CCNCC)ccc1C2=O [Compound 22, 2,7-Bis[3-(ethylamino)propionamido]anthraquinone] | 181 °C | – | – | – | – | – | – | 68 ± 29% | 33 ± 24% | 22 ± 13% | 211 ± 38% | 217 ± 133% | 97 ± 87%
6 | CCN(CC)CC(=O)Nc1ccc2c(c1)C(=O)c1cc(NC(=O)CN(CC)CC)ccc1C2=O [Compound 4, 2,7-Bis[2-(diethylamino)acetamido]anthraquinone] | 241 °C | 90 ± 3% | 61 ± 11% | 37 ± 10% | 26 ± 4% | 131 ± 57% | 116 ± 34% | – | – | – | – | – | –
7 | O=C1c2ccc([N+](=O)[O-])cc2C(=O)c2cc([N+](=O)[O-])ccc21 [Compound 1, 2,7-dinitroanthraquinone] | 284 °C | 87 ± 13% | 85 ± 21% | 62 ± 8% | 55 ± 21% | 60 ± 35% | 65 ± 23% | – | – | – | – | – | –
8 | O=C(CCCCl)Nc1ccc2c(c1)C(=O)c1cc(NC(=O)CCCCl)ccc1C2=O [Compound 25, 2,7-Bis(4-chlorobutyramido)anthraquinone] | 234 °C | 88 ± 19% | 86 ± 13% | 78 ± 17% | 13 ± 58% | 42 ± 45% | 75 ± 16% | – | – | – | – | – | –
9 | O=C(CCc1ccccc1)Nc1ccc2c(c1)C(=O)c1cc(NC(=O)CCc3ccccc3)ccc1C2=O [Compound 31, 2,7-Bis(phenylpropionamido)anthraquinone] | 268 °C | 89 ± 23% | 79 ± 8% | 61 ± 13% | 74 ± 29% | 92 ± 45% | 43 ± 75% | – | – | – | – | – | –
10 | CC(C)CNCC(=O)Nc1ccc2c(c1)C(=O)c1cc(NC(=O)CNCC(C)C)ccc1C2=O [Compound 14, 2,7-Bis[2-(isobutylamino)acetamido]anthraquinone] | 146 °C | 73 ± 20% | 38 ± 15% | 26 ± 10% | 83 ± 5% | 44 ± 2% | 40 ± 3% | – | – | – | – | – | –
11 | CCCCNCCC(=O)Nc1ccc2c(c1)C(=O)c1cc(NC(=O)CCNCCCC)ccc1C2=O [Compound 17, 2,7-Bis[3-(butylamino)propionamido]anthraquinone] | 168 °C | 56 ± 14% | 33 ± 9% | 22 ± 17% | 88 ± 34% | 95 ± 46% | 111 ± 25% | – | – | – | – | – | –
12 | CCCNCCC(=O)Nc1ccc2c(c1)C(=O)c1cc(NC(=O)CCNCCC)ccc1C2=O [Compound 21, 2,7-Bis[3-(propylamino)propionamido]anthraquinone] | – | 52 ± 13% | 22 ± 14% | 13 ± 15% | – | 133 ± 48% | 217 ± 40% | – | – | – | – | – | –
13 | CCCNCC(=O)Nc1ccc2c(c1)C(=O)c1cc(NC(=O)CNCCC)ccc1C2=O [Compound 9, 2,7-Bis[2-(propylamino)acetamido]anthraquinone] | 143 °C | 73 ± 17% | 44 ± 16% | 24 ± 10% | – | – | – | – | – | – | – | – | –

More lines, main results first:

Row | melting point | SMILES | activity at 1 µM [1, 3] | activity at 10 µM [1, 4] | activity at 100 µM [1, 5] | activity at 1 µM [2, 6] | activity at 10 µM [2, 7] | activity at 100 µM [2, 8] | activity at 1 µM [1, 9] | activity at 10 µM [1, 9] | activity at 100 µM [1, 9] | activity at 1 µM [2] | activity at 10 µM [2] | activity at 100 µM [2]
14 | 266 °C | O=C(CCN1CCCCC1)Nc1ccc2c(c1)C(=O)c1cc(NC(=O)CCN3CCCCC3)ccc1C2=O [Compound 19, 2,7-Bis[3-(piperidino)propionamido]anthraquinone] | 55 ± 23% | 33 ± 8% | 25 ± 10% | 186 ± 47% | 226 ± 51% | 234 ± 20% | – | – | – | – | – | –
15 | 173 °C | O=C(CN1CCNCC1)Nc1ccc2c(c1)C(=O)c1cc(NC(=O)CN3CCNCC3)ccc1C2=O [Compound 12, 2,7-Bis[2-(piperazino)acetamido]anthraquinone] | 89 ± 17% | 72 ± 20% | 60 ± 12% | – | – | – | – | – | – | – | – | –
16 | 243 °C | O=C(CN1CCCCC1)Nc1ccc2c(c1)C(=O)c1cc(NC(=O)CN3CCCCC3)ccc1C2=O [Compound 7, 2,7-Bis[2-(piperidino)acetamido]anthraquinone] | 74 ± 19% | 69 ± 20% | 63 ± 15% | 118 ± 16% | 121 ± 3% | 103 ± 5% | – | – | – | – | – | –
17 | 218 °C | O=C(CCN1CCNCC1)Nc1ccc2c(c1)C(=O)c1cc(NC(=O)CCN3CCNCC3)ccc1C2=O [Compound 24, 2,7-Bis[3-(piperazino)propionamido]anthraquinone] | 75 ± 26% | 71 ± 21% | 71 ± 15% | 163 ± 22% | 118 ± 26% | 131 ± 29% | – | – | – | – | – | –
18 | 269 °C | O=C1c2ccc(NC(=O)C3CCCCC3)cc2C(=O)c2cc(NC(=O)C3CCCCC3)ccc21 [Compound 34, 2,7-Bis(cyclohexanecarbonamido)anthraquinone] | 96 ± 5% | 93 ± 3% | 80 ± 2% | 14 ± 67% | 14 ± 53% | 22 ± 7% | – | – | – | – | – | –
19 | 284 °C | CN1CCN(CCC(=O)Nc2ccc3c(c2)C(=O)c2cc(NC(=O)CCN4CCN(C)CC4)ccc2C3=O)CC1 [Compound 23, 2,7-Bis[3-(N-methylpiperazino)propionamido]anthraquinone] | 75 ± 16% | 52 ± 11% | 21 ± 10% | – | 138 ± 115% | 232 ± 66% | – | – | – | – | – | –
